Experimental data: the CheMixHub viscosity set
± gives the uncertainty stated by the source.

Assay: xn = mol fraction of the nth substance listed

CC#N + CC(C)O
Conditions	viscosity [mPa·s]
293.15 K, 101.32 kPa, x1 = 0.0526	1.921 ± 0.015
293.15 K, 101.32 kPa, x1 = 0.0771	1.736 ± 0.014
293.15 K, 101.32 kPa, x1 = 0.1018	1.572 ± 0.013
293.15 K, 101.32 kPa, x1 = 0.2227	1.15 ± 0.009
293.15 K, 101.32 kPa, x1 = 0.3314	0.8622 ± 0.0073
293.15 K, 101.32 kPa, x1 = 0.3989	0.7354 ± 0.0063
293.15 K, 101.32 kPa, x1 = 0.55	0.5657 ± 0.0051
293.15 K, 101.32 kPa, x1 = 0.625	0.502 ± 0.0046
293.15 K, 101.32 kPa, x1 = 0.6893	0.4639 ± 0.0043
293.15 K, 101.32 kPa, x1 = 0.7624	0.4194 ± 0.004
293.15 K, 101.32 kPa, x1 = 0.864	0.3823 ± 0.0037
298.15 K, 101 kPa, x1 = 0.1056	1.372 ± 0.019
298.15 K, 101 kPa, x1 = 0.1688	1.145 ± 0.015
298.15 K, 101 kPa, x1 = 0.2531	0.923 ± 0.012
298.15 K, 101 kPa, x1 = 0.4135	0.653 ± 0.008
298.15 K, 101 kPa, x1 = 0.5014	0.556 ± 0.007
298.15 K, 101 kPa, x1 = 0.6077	0.473 ± 0.006
298.15 K, 101 kPa, x1 = 0.7093	0.424 ± 0.005
298.15 K, 101 kPa, x1 = 0.8276	0.373 ± 0.004
298.15 K, 101 kPa, x1 = 0.9013	0.356 ± 0.004
298.15 K, 101.3 kPa, x1 = 0.1399	1.254 ± 0.03
298.15 K, 101.3 kPa, x1 = 0.2679	0.846 ± 0.021
298.15 K, 101.3 kPa, x1 = 0.3855	0.66 ± 0.017
298.15 K, 101.3 kPa, x1 = 0.4939	0.541 ± 0.015
298.15 K, 101.3 kPa, x1 = 0.5942	0.482 ± 0.014
298.15 K, 101.3 kPa, x1 = 0.6871	0.419 ± 0.012
298.15 K, 101.3 kPa, x1 = 0.7736	0.372 ± 0.011
298.15 K, 101.3 kPa, x1 = 0.8541	0.343 ± 0.011
298.15 K, 101.3 kPa, x1 = 0.9295	0.342 ± 0.011
303.15 K, 101 kPa, x1 = 0.1056	1.088 ± 0.014
303.15 K, 101 kPa, x1 = 0.1688	0.918 ± 0.012
303.15 K, 101 kPa, x1 = 0.2531	0.762 ± 0.009
303.15 K, 101 kPa, x1 = 0.4135	0.551 ± 0.007
303.15 K, 101 kPa, x1 = 0.5014	0.482 ± 0.006
303.15 K, 101 kPa, x1 = 0.6077	0.417 ± 0.005
303.15 K, 101 kPa, x1 = 0.7093	0.382 ± 0.004
303.15 K, 101 kPa, x1 = 0.8276	0.341 ± 0.004
303.15 K, 101 kPa, x1 = 0.9013	0.327 ± 0.004
303.15 K, 101.3 kPa, x1 = 0.1399	1.114 ± 0.027
303.15 K, 101.3 kPa, x1 = 0.2679	0.758 ± 0.02
303.15 K, 101.3 kPa, x1 = 0.3855	0.599 ± 0.016
303.15 K, 101.3 kPa, x1 = 0.4939	0.502 ± 0.014
303.15 K, 101.3 kPa, x1 = 0.5942	0.45 ± 0.013
303.15 K, 101.3 kPa, x1 = 0.6871	0.394 ± 0.012
303.15 K, 101.3 kPa, x1 = 0.7736	0.356 ± 0.011
303.15 K, 101.3 kPa, x1 = 0.8541	0.327 ± 0.01
303.15 K, 101.3 kPa, x1 = 0.9295	0.326 ± 0.01
303.15 K, 101.32 kPa, x1 = 0.0526	1.464 ± 0.012
303.15 K, 101.32 kPa, x1 = 0.0771	1.361 ± 0.011
303.15 K, 101.32 kPa, x1 = 0.1018	1.239 ± 0.01
303.15 K, 101.32 kPa, x1 = 0.2227	0.9168 ± 0.0077
303.15 K, 101.32 kPa, x1 = 0.3314	0.7097 ± 0.0062
303.15 K, 101.32 kPa, x1 = 0.3989	0.6154 ± 0.0054
303.15 K, 101.32 kPa, x1 = 0.55	0.4831 ± 0.0045
303.15 K, 101.32 kPa, x1 = 0.625	0.4366 ± 0.0041
303.15 K, 101.32 kPa, x1 = 0.6893	0.407 ± 0.0039
303.15 K, 101.32 kPa, x1 = 0.7624	0.378 ± 0.0037
303.15 K, 101.32 kPa, x1 = 0.864	0.344 ± 0.0034
308.15 K, 101 kPa, x1 = 0.1056	0.871 ± 0.011
308.15 K, 101 kPa, x1 = 0.1688	0.739 ± 0.01
308.15 K, 101 kPa, x1 = 0.2531	0.635 ± 0.008
308.15 K, 101 kPa, x1 = 0.4135	0.475 ± 0.006
308.15 K, 101 kPa, x1 = 0.5014	0.42 ± 0.005
308.15 K, 101 kPa, x1 = 0.6077	0.372 ± 0.004
308.15 K, 101 kPa, x1 = 0.7093	0.345 ± 0.004
308.15 K, 101 kPa, x1 = 0.8276	0.312 ± 0.004
308.15 K, 101 kPa, x1 = 0.9013	0.302 ± 0.004
308.15 K, 101.3 kPa, x1 = 0.1399	0.995 ± 0.025
308.15 K, 101.3 kPa, x1 = 0.2679	0.687 ± 0.018
308.15 K, 101.3 kPa, x1 = 0.3855	0.546 ± 0.015
308.15 K, 101.3 kPa, x1 = 0.4939	0.465 ± 0.013
308.15 K, 101.3 kPa, x1 = 0.5942	0.417 ± 0.012
308.15 K, 101.3 kPa, x1 = 0.6871	0.37 ± 0.011
308.15 K, 101.3 kPa, x1 = 0.7736	0.331 ± 0.01
308.15 K, 101.3 kPa, x1 = 0.8541	0.311 ± 0.01
308.15 K, 101.3 kPa, x1 = 0.9295	0.309 ± 0.01
313.15 K, 101.3 kPa, x1 = 0.1399	0.889 ± 0.022
313.15 K, 101.3 kPa, x1 = 0.2679	0.623 ± 0.017
313.15 K, 101.32 kPa, x1 = 0.0526	1.125 ± 0.009
313.15 K, 101.32 kPa, x1 = 0.0771	1.047 ± 0.009
313.15 K, 101.32 kPa, x1 = 0.1018	0.991 ± 0.0083
313.15 K, 101.32 kPa, x1 = 0.2227	0.7301 ± 0.0063
313.15 K, 101.32 kPa, x1 = 0.3314	0.5949 ± 0.0053
313.15 K, 101.32 kPa, x1 = 0.3989	0.5253 ± 0.0048
313.15 K, 101.32 kPa, x1 = 0.55	0.4201 ± 0.004
313.15 K, 101.32 kPa, x1 = 0.625	0.3817 ± 0.0037
313.15 K, 101.32 kPa, x1 = 0.6893	0.361 ± 0.0036
313.15 K, 101.32 kPa, x1 = 0.7624	0.3321 ± 0.0033
313.15 K, 101.32 kPa, x1 = 0.864	0.3081 ± 0.0032
323.15 K, 101 kPa, x2 = 0.0989	0.289 ± 0.01
323.15 K, 101 kPa, x2 = 0.1994	0.312 ± 0.01
323.15 K, 101 kPa, x2 = 0.2943	0.34 ± 0.01
323.15 K, 101 kPa, x2 = 0.3965	0.378 ± 0.01
323.15 K, 101 kPa, x2 = 0.4864	0.427 ± 0.01
323.15 K, 101 kPa, x2 = 0.6077	0.499 ± 0.01
323.15 K, 101 kPa, x2 = 0.7049	0.58 ± 0.01
323.15 K, 101 kPa, x2 = 0.8007	0.685 ± 0.01
323.15 K, 101 kPa, x2 = 0.8971	0.815 ± 0.011
323.15 K, 101.32 kPa, x1 = 0.0526	0.9024 ± 0.0077
323.15 K, 101.32 kPa, x1 = 0.0771	0.8427 ± 0.0072
323.15 K, 101.32 kPa, x1 = 0.1018	0.7839 ± 0.0068
323.15 K, 101.32 kPa, x1 = 0.2227	0.6091 ± 0.0054
323.15 K, 101.32 kPa, x1 = 0.3314	0.5031 ± 0.0046
323.15 K, 101.32 kPa, x1 = 0.3989	0.4466 ± 0.0042
323.15 K, 101.32 kPa, x1 = 0.55	0.3731 ± 0.0037
323.15 K, 101.32 kPa, x1 = 0.625	0.3434 ± 0.0034
323.15 K, 101.32 kPa, x1 = 0.6893	0.329 ± 0.0033
323.15 K, 101.32 kPa, x1 = 0.7624	0.3054 ± 0.0032
323.15 K, 101.32 kPa, x1 = 0.864	0.2835 ± 0.003
